What all share (assay type): cell-based, human
Assay [1] relates to U87 shCTRL cells. Briefly: Cell cycle by flow cytometry (propidium iodide), U87 shCTRL. The conditions noted are these: 48 h, compounds 10 µM, NOC 1 µM. On the procedure:
(§1) Measurements of cell cycle from DNA content were performed by flow cytometry as described before. Briefly, 4.10^5 cells in exponential growth were seeded in 6-well plates. After 24 h, they were treated with 10 µM of compounds for 48 h. Nocodazole was used as a positive control with a concentration of 1 µM. The trypsinized cells were harvested and then centrifuged (1200 rpm, 5 min, at room temperature). The cell pellet was resuspended in 1 mL of PBS 1× at 4 °C, and then an extra 4 mL of cold PBS was added to wash the pellet. Cells were then centrifuged again (1200 rpm, 5 min, at 4 °C). To fixate the cells, the pellet was resuspended in 100 µL of cold 70% ethanol, then an additional 900 µL was added and cells were incubated for 30 min at −20 °C. After that, 9 mL of cold PBS was added, and cells were centrifuged (2000 rpm, 5 min, at 4 °C) to remove ethanol. The cell pellet was then resuspended in the staining mix containing 50 µg.mL^−1 of propidium iodide (Molecular Probes, Paris, France) and 100 µg.mL^−1 of RNAse A (Sigma-Aldrich, Saint-Quentin-Fallavier, France) in PBS for 20 min at room temperature in darkness. Samples were analyzed on a Beckman–Coulter–Gallios flow cytometer using the Kaluza for Gallios Acquisition v1.0 software. Propidium iodide was excited at 488 nm, and fluorescence was analyzed at 620 nm on channel FL-3. For the analysis, there is considerable overlap between early S phase and G1 and between late S phase and G2/M due to broadening of the distribution caused by variability in the staining of the cells and instrumental variability. Therefore, the percentages of cells in the sub-G1, G1, S, and G2/M phases of the cell cycle were calculated using the Watson et al. algorithm for cell cycle analysis in Kaluza for Gallios Analysis v2.1 software. The software automatically adjusted gates based on PI median fluorescence intensity of the cells and their frequency among total cells. The number of cells in each phase was divided by the total number of analyzed cells, and the values were reported as percentage of the total cells for each cell cycle phase.
For orientation: In flow cytometry, cells or beads pass a laser one at a time.

Assay [2] relates to U87 shTau cells. The assay can be described thus: Cell cycle by flow cytometry (propidium iodide), U87 shTau. As to conditions: 48 h, compounds 10 µM, NOC 1 µM. On the procedure:
as §1

Assay [3] has as its system U87 shCTRL cells. The assay can be described thus: Mitotic index by high-content imaging, U87 shCTRL. As to conditions: 48 h, 5-times IC50 of compounds. On the procedure:
(§2) For scoring mitotic indexes, an automated high-content screening confocal microscopy approach was employed to identify cells undergoing mitosis from a large population of cells. For this, cells nuclei were stained with DAPI. Briefly, fibronectin-coated clear-glass-bottom black 96-well imaging plates were seeded with 100 µL of cell suspension (60,000 cell.mL^−1) in each well, with both U87 shCTRL and U87 ShTau cell lines. Cells were treated with 5-times IC50 of compounds for 48 h, then they were fixated inside the palates with 4% formaldehyde (in PBS pH 7.4) for 20 min at room temperature, permeabilized with PBS-Triton X-100 0.5% for 10 min at room temperature. DNA was then stained with DAPI (10 µg.mL^−1) for 5 min at room temperature and in the darkness. After being washed, cells were kept in PBS at 4 °C and imaged while in PBS. Automated confocal microscopy was carried out using an Opera Phenix (PerkinElmer) high-content screening microscope using a 20× Air/0.4 NA air objective. For each condition, 6 wells were prepared and a total of 61 fields were acquired for each well. Image analysis was performed using Harmony high-content analysis v4.8 software and PhenoLOGIC Machine Learning technology, which uses a learn-by-example approach. As a first step, nuclei were segmented and multiple parameters for these nuclei were calculated using Harmony v4.8 software building blocks. After training, PhenoLOGIC Machine Learning then selects the best parameters to detect nuclei undergoing the M phase of mitosis. From this, the mitotic index of each condition was calculated by dividing the number of cells undergoing mitosis over the total number of cells.

The test system of assay [4] is U87 shTau cells. Briefly: Mitotic index by high-content imaging, U87 shTau. As to conditions: 48 h, 5-times IC50 of compounds. On the procedure: as §2

This note sets out measurements from article PMC10606064, “2-Aminothiazole-Flavonoid Hybrid Derivatives Binding to Tau Protein and Responsible for Antitumor Activity in Glioblastoma” (International Journal of Molecular Sciences, 2023).

Consider `COC(=O)Nc1nc2ccc(C(=O)c3cccs3)cc2[nH]1` [NOC, nocodazole, reference compound], for which the figures for the “%G1 (cells in G1 phase)” value in assay [1] and in assay [2] were 10 ± 3% and 9 ± 7%, respectively. The figures for the “%G2/M (cells in G2/M phase)” value in assay [1] and in assay [2] were 82 ± 6% and 77 ± 4%, respectively. Further, the mitotic index in assay [3] was 9.38 ± 3.55%; in assay [4] it was 23.0 ± 4.01%.
